Legend:
tau fibrils [1] = biological target: tau fibrils; design: method as in PMID 28087578; conditions: read-out: Kd, previously reported value; cited from earlier work
[2] = test system: 3R tau151-391 aggregates in cortical sections from SHR24 rats; assay: Binding to SHR24 transgenic rat brain sections; conditions: SHR24 (3R) vs SHR72 (4R) brain tissue
Source text: (§1) Since future PET studies for development of these compounds would require kinetic modeling for their assessment in vivo, we tested their performance in tau transgenic rats. Rat brains and blood volumes are about 6- and 10-fold larger, respectively, than those of mice and thus enable higher resolution imaging and ample volume for repeated blood sampling. We used two transgenic rat lines expressing human-truncated tau comprising the proline-rich region and either three microtubule binding domains (3R tau151-391, SH24)[28] or four microtubule binding domains (4R tau151-391, SHR72).[29] […] However, compared to the SHR24 rat brain sections, there were less inclusions detected, which seems to indicate the compounds have preferential binding toward the three repeat forms of tau in these rat models.
(§2) Fresh frozen rat brain coronal sections (10 μm) were stored on slides at −80 °C until use. Sections were fixed in ice cold acetone for 10 min and air-dried and then rehydrated twice for 5 min with buffer (10 mM PBS with 0.1% Triton X-100) before application of 5% bovine serum albumin for 1 h and two more 5 min buffer washes. Primary monoclonal antibody AT8 (Thermo MN1020, 1:1000) was added overnight at 4 °C, followed by 1 h incubation with a mixture of secondary AlexaFluor555 goat anti-mouse antibody (1:1000) and 50 μM PBB3 or LM229 in 50:50 ethanol/buffer. Following two 5 min washes in buffer, the slides were air-dried and cover-slipped using Fluorsave before analysis. The green autofluorescence of PBB3 and LM229 was visualized using a 488 nm filter and fluorescence of AT8 using a 568 nm filter on a Leica DM6000 microscope.

[3] = biological target: T1, 3R tau151-391 aggregates in cortical sections from SHR24 rats (Homo sapiens, UniProt P10636); assay: Binding to SHR24 transgenic rat brain sections; conditions: 50 μM, colocalization with AT8
T1 construct: tissue AXON Neuroscience; host or cells: brain (cortex) sections of SHR24 transgenic rats
Source text: as §1, §2

[4] = biological target: T2, tau aggregates in brain of P301S tau mice (Homo sapiens, UniProt P10636, P618S); assay: Ex vivo mouse study: i.v. injection, brain sections imaged after 1 h; type: in vivo; conditions: i.v. injection 1 h prior, colocalization with AT8
T2 construct: from tissue; host or cells: brain of transgenic P301S tau mice (C57Bl/6 background)
Description: We next looked at the ability of LM229 to cross the blood–brain barrier (BBB), a key property of any viable neuro-radiotracer. LM229 was injected intravenously (i.v.) (1 mg/kg weight), and after 1 h, WT and P301S tau mice were perfused-fixed and brain sections were imaged under a fluorescence microscope. […] However, we await a comparison of PBB3 and LM229 by PET imaging to determine their relativity properties as in vivo imaging probes.
Mice were injected intravenously (i.v.) with 50 μM LM229 or PBB3 (DMSO) diluted in 50:50 ethanol/PBS. Animals were then perfused (4% PFA) 1 h post-i.v.

[5] = biological target: T3, 4R tau151-391 aggregates in brainstem sections from SHR72 rats (Homo sapiens, UniProt P10636); assay: Binding to SHR72 transgenic rat brain sections; conditions: 50 μM, colocalization with AT8
T3 construct: tissue AXON Neuroscience; host or cells: brain (brainstem) sections of SHR72 transgenic rats
Source text: as §1
Fresh frozen rat brain coronal sections (10 μm) were stored on slides at −80 °C until use. Sections were fixed in ice cold acetone for 10 min and air-dried and then rehydrated twice for 5 min with buffer (10 mM PBS with 0.1% Triton X-100) before application of 5% bovine serum albumin for 1 h and two more 5 min buffer washes. […] The green autofluorescence of PBB3 and LM229 was visualized using a 488 nm filter and fluorescence of AT8 using a 568 nm filter on a Leica DM6000 microscope.

[6] = biological target: T4, heparin-induced synthetic recombinant tau fibrils (tau-441 human) (Homo sapiens, UniProt P10636); assay: Fluorescence quenching assay of compound binding to heparin-induced synthetic recombinant tau fibrils; conditions: read-out: Kd of compound binding to heparin-induced synthetic tau fibrils determined by fluorimetry
T4 construct: purchased Eurogentec
Description: All compounds were assessed for their ability to bind to synthetic recombinant tau fibrils using a fluorescence quenching assay[20] […] Binding affinities for some compounds (141, 164, 166, 169, 171, and 207) could not be assessed with this assay because of negligible changes in fluorescence intensity. […] This compound was then selected for further characterization and development.
All reagents and solvents were used as supplied or purified using standard procedures as necessary. Analytical separation was conducted on an Ultimate 3000 HPLC system (Thermo Scientific). [^11C]CO2 was produced via the ^14N(p,α) nuclear reaction using GE PETtrace cyclotron applying 16.5 MeV protons onto 0.5% oxygen in nitrogen gas. [^11C]Methyl iodide was synthesized on a GE Medical Systems MeI MicroLab. A F-4500 FL spectrophotometer (Chemical Engineering department, University of Cambridge) was used to do fluorescence scan of all of the compounds mixed with tau fibrils. Excitation wavelength was 365 nm, and emission was scanned from 400 to 600 nm. With parameters, setting excitation slit was 5.0 nm, emission slit was 20.0 nm, PMT voltage was 950 V, and response was 0.5 s.
Monomeric tau (tau-441 human) lyophilized powder was obtained from Eurogentec. Tau monomers (100 μM) were prepared in 20 mM BES buffer (pH 7.4 with 25 mM NaCl and 2 mM dithiothreitol and incubated at 56 °C for 10 min. After being cooled to room temperature in a water bath, heparin (25 μM) and a protease inhibitor mix were added and incubated at 37 °C for 10 days. […]
Binding affinity of all compounds with tau fibrils […]
All other compounds binding affinit ies towards tau fibrils
were then tested by fluorescent binding assay. […]

[7] = test system: tau aggregates in DRG neurons from P301S tau mice; assay: Fluorescence binding to cultured DRG neurons from P301S tau transgenic mice; type: cell-based, mouse; conditions: IC50 could not be derived because of low affinity
Description: P301S tau mice with aggregated tau in the brain also express aggregated tau in DRG neurons.[24]−[26] […] To estimate the apparent affinity of LM229 to tau aggregates directly in living neurons, we imaged live neurons after 20 min incubation with various concentrations of LM229 (Figure 4A). […] LM229 binding was specific to neurons with aggregated tau, as detected with the AT100 antibody[18],[22],[23],[26] (Figure 4D). […] Although PBB3 also bound to DRG neurons with tau aggregates at 30–100 μM, it was not possible to derive an IC50 value because of its low affinity in this assay (Supporting Information, Figure S2). […] The shift from nanomolar to micromolar affinity between binding to heparin tau fibrils and tau aggregates in P301S tau neurons may reflect the different environment and assay conditions or the different conformations that tau aggregates assume in neurons compared to heparin–tau complexes.[27]
Neurons were prepared from phenotypic end stage 5–7 month old P301S tau mice and cultured as described previously.[24] For live staining, neurons cultured for 2 days were washed in PBS and incubated with various concentrations of LM229 for 20 min at room temperature. After three washes in PBS, neurons were imaged on a Leica DMI 4000B microscope using a DFC3000 G camera and application suite 4.0.0.11706. The dead cell stain Propidium iodide (1 μg/mL) was added to ensure that only live cells were imaged. Phase contrast images were taken to show viable neurons. For fixed cell staining, neurons were fixed for 20 min at room temperature in 4% paraformaldehyde, washed in PBS, and permeabilized in PBS containing 0.3% Triton X-100. LM299 was added as described for live cells, and cells were probed with AT100 (1:1000, MN1060) followed by anti-mouse AlexaFluor568 secondary antibody. Cultures were co-stained with the nuclear dye DAPI (blue) to reveal total cells. […]
(§3) Binding to cultured neurons from P301S tau transgenic mice
(§4) DRG were incubated with the indicated concentrations of LM229 or PBB3 for 20 minutes at room temperature, washed 3 times in PBS, and imaged on a Leica DMI 4000B microscope using a Leica DFC3000 G camera and the Leica application suite 4.0.0.11706. Fluorescence intensity was measured in 10-16 neurons each from 3 independent cultures using Image J (imagej.nih.gov/ij/). Results shown are mean ± SD. Non linear least squares curve fitting was applied using http://faculty.gvsu.edu/carlsont/232lab/nonlin2.html. No Km value was […]
Figure S2: Binding of LM229 and PBB3 to DRG neurons with tau aggregates […]
(1 picture or pasted object on this page, not shown here)

[8] = In vivo PET studies in wild-type and P301S tau mice; design: species or system mouse; conditions: for Maximum brain uptake (%ID/g max): whole brain
Source text: We then performed preliminary in vivo PET studies with [^11C]L229 in both WT and transgenic P310S tau mice. […] Further PET studies are required to fully characterize the in vivo pharmacokinetics of the radiotracer in both mice and rats.
These studies were regulated under the Animals (Scientific Procedures) Act 1986 Amendment Regulations 2012 following ethical review by the University of Cambridge Animal Welfare and Ethical Review Body (AWERB). The mice were anesthetized with 5% isoflurane, and general anesthesia was maintained using 1.5% isoflurane. The anesthetized mice were placed prone on the bed of a microPET Focus-220 scanner (Concorde Microsystems, Knoxville, TN). Body temperature was maintained at 37 °C using a heating blanket connected to a rectal thermistor probe. Blood oxygen saturation as well as heart rate and breathing rate were monitored and maintained within normal limits using a noninvasive mouseOX pulse-oximeter sensor (Starr Life Science Corp., Oakmont, PA) attached to the thigh. Before the injection of a tracer, a transmission scan was performed with a 68Ge point source for attenuation and scatter correction of 511 keV photons. [^11C]LM229 was injected via the tail vein over 30 s, followed by a 15 s heparin–saline flush. Dynamic data were acquired in list mode for 90 min. Data were subsequently Fourier rebinned in following time frames: 12 × 5 s, 6 × 10 s, 3 × 20 s, 4 × 30 s, 5 × 60 s, 10 × 120 s, 12 × 5 min. Corrections were applied for randoms, dead time, normalization, attenuation, and decay. Fourier rebinning was used to compress the 4D sinograms to 3D before reconstruction with a 2D-filtered back projection with a Hann window cutoff at the Nyquist frequency. The image voxel size was 0.95 × 0.95 × 0.80 mm, with an array size of 128 × 128 × 95.
Three-dimensional volumes of interest (VOIs) for mice brain MRI template available on PMOD software (version 3.8; PMOD technologies, Zurich, Switzerland) were modified to obtain a whole brain VOI. […] The results were expressed as % injected dose per gram, assuming a specific gravity of 1 g·mL^–1 for brain tissue.

[9] = test system: tau pathology in PS19 tau transgenic mice; design: method as in PMID 24050400; conditions: cited from earlier work
[10] = test system: brainstem of P301S tau mice; design: method as in PMID 29930508; conditions: P301S tau mice vs WT; cited from earlier work
[11] = test system: tau tangles in transgenic mice expressing mutant human P301L tau; design: method as in PMID 27030397, PMID 23411393; conditions: in vitro and microPET in vivo imaging; cited from earlier work
tau fibrils [12] = biological target: T5, tau fibrils (Homo sapiens, UniProt P10636); assay: Microscale thermophoresis screen for interaction with tau fibrils; type: binding; conditions: 1 µM and 1 nM compound mixed with 100 nM tau fibrils
T5 construct: purchased Eurogentec
Description: buffer) for 1 h at room temperature. Following 3 washes in PBS/0.1% Triton X-100, 50 µM LM229 (diluted in 1:1 blocking buffer/ethanol) was then added for 1 h at room temperature. Nuclei were stained with DAPI (0.1mg/ml for 10 min), washed and tissues mounted in FluorSaveTM prior to analysis using fluorescence […]
Binding affinity of all compounds with tau fibrils
Microscale Thermophoresis was first used to screen whether there were interaction between the compounds and tau fibrils. For this procedure 200 µL, 5 µM tau fibrils were mixed with 200 µL, 10 µM NT647-NHS dye and then incubated in dark for 30 minutes. Further dialysis (18 hours, changing the buffer after the first 4 hours) was used to remove the free dye giving a 2.5 µM solution of label led protein. The label ling ratio of dye unit per tau monomer was then tested by a method recommended by the instrument manufacturer, NanoTemper Technologies, which is based on a cal ibration curve. The 2.5 µM tau fibril solution was then aliquoted prior to use. The unused samples were frozen at -20 °C. MST measurements were conducted using Monolith NT.115 instrument (NanoTemper Technologies, Germany) at 25 °C. Assays were conducted at 40 % MST Power and 90 % IR-laser power. With each compound, two concentrations (1µM and 1nM) were used to mix with 100nM tau fibrils and then loaded to the MST instrument to read out the MST data curve. Only three compounds 166, 164 […]
All other compounds binding affinit ies towards tau fibrils were then tested by fluorescent binding assay.
as §3
as §4, with “http://faculty.gvsu.edu/carlsont/232lab/nonlin2.html.” for “http://faculty.gvsu.edu/carlsont/232lab/nonlin2.html. No Km value was”

T4 sequence (P10636 1-441 isoform P10636-8): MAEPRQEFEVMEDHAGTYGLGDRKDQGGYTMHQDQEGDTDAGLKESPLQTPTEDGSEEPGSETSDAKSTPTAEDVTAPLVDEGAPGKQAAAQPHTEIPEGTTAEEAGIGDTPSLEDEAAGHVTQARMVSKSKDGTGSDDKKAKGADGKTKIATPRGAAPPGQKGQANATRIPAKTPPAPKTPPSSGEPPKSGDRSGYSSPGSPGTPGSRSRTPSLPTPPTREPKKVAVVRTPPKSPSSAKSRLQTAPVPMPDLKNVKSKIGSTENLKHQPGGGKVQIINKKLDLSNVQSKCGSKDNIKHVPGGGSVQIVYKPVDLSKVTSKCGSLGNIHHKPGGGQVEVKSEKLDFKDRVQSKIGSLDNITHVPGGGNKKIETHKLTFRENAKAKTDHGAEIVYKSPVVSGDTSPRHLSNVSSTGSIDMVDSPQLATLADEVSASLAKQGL
T5 sequence (P10636 1-441 isoform P10636-8): as above
T2 sequence (P10636 1-383 isoform P10636-6 P243S): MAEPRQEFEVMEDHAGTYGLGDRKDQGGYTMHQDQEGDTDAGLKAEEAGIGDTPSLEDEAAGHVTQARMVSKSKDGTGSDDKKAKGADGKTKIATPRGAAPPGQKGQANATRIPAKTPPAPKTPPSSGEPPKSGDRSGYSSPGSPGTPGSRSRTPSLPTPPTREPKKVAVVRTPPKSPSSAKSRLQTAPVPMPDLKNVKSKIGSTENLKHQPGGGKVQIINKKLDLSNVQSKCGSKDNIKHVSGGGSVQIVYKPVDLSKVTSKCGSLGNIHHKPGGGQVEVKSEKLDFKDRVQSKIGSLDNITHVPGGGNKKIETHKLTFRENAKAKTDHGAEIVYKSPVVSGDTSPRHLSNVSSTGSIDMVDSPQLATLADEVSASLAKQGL
T3 sequence (P10636 468-708): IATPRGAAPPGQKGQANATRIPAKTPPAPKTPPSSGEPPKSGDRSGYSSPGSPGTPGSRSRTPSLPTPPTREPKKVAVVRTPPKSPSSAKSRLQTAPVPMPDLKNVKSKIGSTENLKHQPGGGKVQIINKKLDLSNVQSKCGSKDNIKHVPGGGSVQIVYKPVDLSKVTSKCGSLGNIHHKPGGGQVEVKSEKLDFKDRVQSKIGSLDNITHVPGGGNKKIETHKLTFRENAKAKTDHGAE
T1 sequence (P10636 151-360 isoform P10636-5): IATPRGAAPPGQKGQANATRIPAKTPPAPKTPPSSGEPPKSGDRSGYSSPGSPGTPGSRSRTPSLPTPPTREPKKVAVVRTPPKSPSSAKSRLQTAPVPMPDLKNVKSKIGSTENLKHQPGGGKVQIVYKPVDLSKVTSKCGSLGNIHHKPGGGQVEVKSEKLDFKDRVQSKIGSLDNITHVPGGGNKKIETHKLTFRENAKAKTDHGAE

## CNc1ccc(/C=C/C=C/c2nc3ccc(O)cc3s2)cn1 [PBB3, reference compound]
Tau fibrils [1]
  Kd: 1.3 nM
[2]
  Preference between 3R and 4R tau inclusions in rat models: preferential binding toward the 3R tau inclusions
[3]
  Binding to pathological aggregated tau in SHR24 rat brain sections: bound with similar properties to pathological aggregated tau
[4]
  Ex vivo binding in P301S tau brain tissue: significant nonspecific binding
[5]
  Binding to tau in SHR72 rat brain sections: bound to tau in brain sections from SHR72 rats
[6]
  Kd: 1.4 nM
[7]
  Concentration at which binding to DRG neurons with tau aggregates was seen: 30 to 100 µM

## [11CH3]Nc1ccc(/C=C/C=C/c2nc3cc(F)c(O)cc3s2)cn1 [[^11C]LM229]
[8]; P301S mouse
  Maximum brain uptake (%ID/g max): 2.38 %ID/g
[8]; WT and P301S mice
  Time of maximum brain uptake: within the first minute
[8]; WT mouse
  Maximum brain uptake (%ID/g max): 1.56 %ID/g

## [11CH3]Nc1ccc(/C=C/C=C/c2nc3ccc(O)cc3s2)cn1 [[^11C]PBB3]
[9]
  Binding to tau pathology in PS19 tau transgenic mice: bind to tau pathology

## [18F]c1ccc(-c2ccc3c(c2)[nH]c2ccncc23)cn1 [[^18F]T807]
[10]
  Difference in retention in brainstem compared to control WT mice: no more than 23%
[11]
  Specific binding to tau tangles in P301L tau mice: no specific binding

## Oc1ccc2nc(/C=C/C=C/c3ccc(F)nc3)sc2c1 [compound 148]
[6]
  Kd: 56 nM

## Oc1ccc2nc(/C=C/C=C/c3ccc(F)cn3)sc2c1 [compound 152]
[6]
  Kd: 353 nM

## Fc1ccc(/C=C/C=C/c2nc3ccccc3s2)nc1 [compound 164]
Tau fibrils [12]
  Change of the MST data curve: no changes

## Oc1ccc2sc(/C=C/C=C/c3ccc(F)cn3)nc2c1 [compound 166]
Tau fibrils [12]
  Change of the MST data curve: no changes

## Fc1ccc(/C=C/C=C/c2nc3ccccc3s2)cn1 [compound 169]
Tau fibrils [12]
  Change of the MST data curve: no changes

## CNc1ccc(/C=C/C=C/c2nc3cc(F)c(OC)cc3s2)cn1 [compound 225]
[6]
  Kd: 1.1 nM

## CNc1ccc(/C=C/C=C/c2nc3cc(OCCF)ccc3s2)cn1 [compound 236]
[6]
  Kd: 454 nM

— article PMC8176454, “Synthesis and Assessment of Novel Probes for Imaging Tau Pathology in Transgenic Mouse and Rat Models” (ACS Chemical Neuroscience, 2021)
